Laboratory results published in ChEMBL document CHEMBL2057188, “Hybridizing ability and nuclease resistance profile of backbone modified cationic phosphorothioate oligonucleotides” (Bioorg Med Chem, 2012).

Legend:
Type in all cases: nucleic-acid assay
Nucleic Acid [1] = experiment: (§1) DNA hybridizing activity at single stranded DNA assessed as thermal stability of duplexes formed between compound and complimentary ssDNA by measuring melting temperature at 4 uM in presence of 10 mM pH 7.2 sodium phosphate buffer containing 100 mM NaCl by UV based melting experiment
Nucleic Acid [2] = experiment: as §1, with “measuring change in” for “measuring”, “experiment relative to untreated control” for “experiment”
Nucleic Acid [3] = experiment: (§2) DNA hybridizing activity at single stranded RNA assessed as thermal stability of duplexes formed between compound and complimentary ssRNA by measuring melting temperature at 4 uM in presence of 10 mM pH 7.2 sodium phosphate buffer containing 100 mM NaCl by UV based melting experiment
Nucleic Acid [4] = experiment: as §2, with “measuring change in” for “measuring”, “experiment relative to untreated control” for “experiment”
Nucleic Acid [5] = experiment: (§3) DNA hybridizing activity at 22 bp double stranded DNA assessed as thermal stability of duplexes formed between compound and complimentary dsDNA by measuring melting temperature at 1.5 uM in presence of 7 mM pH 5.5 sodium phosphate buffer containing 140 mM K, 10 mM MgCl2 by UV based melting experiment
Nucleic Acid [6] = experiment: as §3, with “measuring change in” for “measuring”

| Tm (Nucleic Acid [1]) [°C] | Tm (Nucleic Acid [3]) [°C] | Tm (Nucleic Acid [5]) [°C] | SMILES | ΔTm (Nucleic Acid [2]) [°C] | ΔTm (Nucleic Acid [4]) [°C] | ΔTm (Nucleic Acid [6]) [°C] |
| --- | --- | --- | --- | --- | --- | --- |
| 40 | 44 | 25 | Cc1cn([C@H]2C[C@H](OP(=O)(O)OC[C@H]3O[C@@H](n4cc(C)c(=O)[nH]c4=O)C[C@@H]3OP(=O)(O)OC[C@H]3O[C@@H](n4cc(C)c(=O)[nH]c4=O)C[C@@H]3O[P@](=O)(OC[C@H]3O[C@@H](n4cc(C)c(=O)[nH]c4=O)C[C@@H]3OP(=O)(O)OC[C@H]3O[C@@H](n4cc(C)c(=O)[nH]c4=O)C[C@@H]3OP(=O)(O)OC[C@H]3O[C@@H](n4cc(C)c(=O)[nH]c4=O)C[C@@H]3OP(=O)(O)OC[C@H]3O[C@@H](n4ccc(N)nc4=O)C[C@@H]3OP(=O)(O)OC[C@H]3O[C@@H](n4ccc(N)nc4=O)C[C@@H]3OP(=O)(O)OC[C@H]3O[C@@H](n4ccc(N)nc4=O)C[C@@H]3OP(=O)(O)O)SCCNCCCN)[C@@H](COP(=O)(O)O[C@H]3C[C@H](n4ccc(N)nc4=O)O[C@@H]3COP(=O)(O)O[C@H]3C[C@H](n4ccc(N)nc4=O)O[C@@H]3COP(=O)(O)O[C@H]3C[C@H](n4ccc(N)nc4=O)O[C@@H]3CO)O2)c(=O)[nH]c1=O | -2 | -2 | -1 |
| 45 | 46 | 31 | Cc1cn([C@H]2C[C@H](OP(=O)(O)OC[C@H]3O[C@@H](n4cc(C)c(=O)[nH]c4=O)C[C@@H]3OP(=O)(O)OC[C@H]3O[C@@H](n4cc(C)c(=O)[nH]c4=O)C[C@@H]3O[P@@](=O)(OC[C@H]3O[C@@H](n4cc(C)c(=O)[nH]c4=O)C[C@@H]3OP(=O)(O)OC[C@H]3O[C@@H](n4cc(C)c(=O)[nH]c4=O)C[C@@H]3OP(=O)(O)OC[C@H]3O[C@@H](n4cc(C)c(=O)[nH]c4=O)C[C@@H]3OP(=O)(O)OC[C@H]3O[C@@H](n4ccc(N)nc4=O)C[C@@H]3OP(=O)(O)OC[C@H]3O[C@@H](n4ccc(N)nc4=O)C[C@@H]3OP(=O)(O)OC[C@H]3O[C@@H](n4ccc(N)nc4=O)C[C@@H]3OP(=O)(O)O)SCCNCCCN)[C@@H](COP(=O)(O)O[C@H]3C[C@H](n4ccc(N)nc4=O)O[C@@H]3COP(=O)(O)O[C@H]3C[C@H](n4ccc(N)nc4=O)O[C@@H]3COP(=O)(O)O[C@H]3C[C@H](n4ccc(N)nc4=O)O[C@@H]3CO)O2)c(=O)[nH]c1=O | 3 | 0 | 6 |
| 42 | 46 | 25 | Cc1cn([C@H]2C[C@H](OP(=O)(O)OC[C@H]3O[C@@H](n4cc(C)c(=O)[nH]c4=O)C[C@@H]3OP(=O)(O)OC[C@H]3O[C@@H](n4cc(C)c(=O)[nH]c4=O)C[C@@H]3O[P@](=O)(S)OC[C@H]3O[C@@H](n4cc(C)c(=O)[nH]c4=O)C[C@@H]3OP(=O)(O)OC[C@H]3O[C@@H](n4cc(C)c(=O)[nH]c4=O)C[C@@H]3OP(=O)(O)OC[C@H]3O[C@@H](n4cc(C)c(=O)[nH]c4=O)C[C@@H]3OP(=O)(O)OC[C@H]3O[C@@H](n4ccc(N)nc4=O)C[C@@H]3OP(=O)(O)OC[C@H]3O[C@@H](n4ccc(N)nc4=O)C[C@@H]3OP(=O)(O)OC[C@H]3O[C@@H](n4ccc(N)nc4=O)C[C@@H]3OP(=O)(O)O)[C@@H](COP(=O)(O)O[C@H]3C[C@H](n4ccc(N)nc4=O)O[C@@H]3COP(=O)(O)O[C@H]3C[C@H](n4ccc(N)nc4=O)O[C@@H]3COP(=O)(O)O[C@H]3C[C@H](n4ccc(N)nc4=O)O[C@@H]3CO)O2)c(=O)[nH]c1=O | – | – | – |
| 42 | 46 | 26 | Cc1cn([C@H]2C[C@H](OP(=O)(O)OC[C@H]3O[C@@H](n4cc(C)c(=O)[nH]c4=O)C[C@@H]3OP(=O)(O)OC[C@H]3O[C@@H](n4cc(C)c(=O)[nH]c4=O)C[C@@H]3O[P@@](=O)(S)OC[C@H]3O[C@@H](n4cc(C)c(=O)[nH]c4=O)C[C@@H]3OP(=O)(O)OC[C@H]3O[C@@H](n4cc(C)c(=O)[nH]c4=O)C[C@@H]3OP(=O)(O)OC[C@H]3O[C@@H](n4cc(C)c(=O)[nH]c4=O)C[C@@H]3OP(=O)(O)OC[C@H]3O[C@@H](n4ccc(N)nc4=O)C[C@@H]3OP(=O)(O)OC[C@H]3O[C@@H](n4ccc(N)nc4=O)C[C@@H]3OP(=O)(O)OC[C@H]3O[C@@H](n4ccc(N)nc4=O)C[C@@H]3OP(=O)(O)O)[C@@H](COP(=O)(O)O[C@H]3C[C@H](n4ccc(N)nc4=O)O[C@@H]3COP(=O)(O)O[C@H]3C[C@H](n4ccc(N)nc4=O)O[C@@H]3COP(=O)(O)O[C@H]3C[C@H](n4ccc(N)nc4=O)O[C@@H]3CO)O2)c(=O)[nH]c1=O | – | – | – |
| 44 | 48 | 29 | Cc1cn([C@H]2C[C@H](OP(=O)(O)O)[C@@H](COP(=O)(O)O[C@H]3C[C@H](n4ccc(N)nc4=O)O[C@@H]3COP(=O)(O)O[C@H]3C[C@H](n4ccc(N)nc4=O)O[C@@H]3COP(=O)(O)O[C@H]3C[C@H](n4cc(C)c(=O)[nH]c4=O)O[C@@H]3COP(=O)(O)O[C@H]3C[C@H](n4cc(C)c(=O)[nH]c4=O)O[C@@H]3COP(=O)(O)O[C@H]3C[C@H](n4cc(C)c(=O)[nH]c4=O)O[C@@H]3COP(=O)(O)O[C@H]3C[C@H](n4cc(C)c(=O)[nH]c4=O)O[C@@H]3COP(=O)(O)O[C@H]3C[C@H](n4cc(C)c(=O)[nH]c4=O)O[C@@H]3COP(=O)(O)O[C@H]3C[C@H](n4cc(C)c(=O)[nH]c4=O)O[C@@H]3COP(=O)(O)O[C@H]3C[C@H](n4ccc(N)nc4=O)O[C@@H]3COP(=O)(O)O[C@H]3C[C@H](n4ccc(N)nc4=O)O[C@@H]3COP(=O)(O)O[C@H]3C[C@H](n4ccc(N)nc4=O)O[C@@H]3CO)O2)c(=O)[nH]c1=O | – | – | – |

The next lines start with the compound.

| SMILES | Tm (Nucleic Acid [1]) [°C] | Tm (Nucleic Acid [3]) [°C] | Tm (Nucleic Acid [5]) [°C] | ΔTm (Nucleic Acid [2]) [°C] | ΔTm (Nucleic Acid [4]) [°C] | ΔTm (Nucleic Acid [6]) [°C] |
| --- | --- | --- | --- | --- | --- | --- |
| Cc1cn([C@H]2C[C@H](OP(=O)(O)OC[C@H]3O[C@@H](n4cc(C)c(=O)[nH]c4=O)C[C@@H]3OP(=O)(O)OC[C@H]3O[C@@H](n4cc(C)c(=O)[nH]c4=O)C[C@@H]3O[P@](=O)(OC[C@H]3O[C@@H](n4cc(C)c(=O)[nH]c4=O)C[C@@H]3OP(=O)(O)OC[C@H]3O[C@@H](n4cc(C)c(=O)[nH]c4=O)C[C@@H]3OP(=O)(O)OC[C@H]3O[C@@H](n4cc(C)c(=O)[nH]c4=O)C[C@@H]3OP(=O)(O)OC[C@H]3O[C@@H](n4ccc(N)nc4=O)C[C@@H]3OP(=O)(O)OC[C@H]3O[C@@H](n4ccc(N)nc4=O)C[C@@H]3OP(=O)(O)OC[C@H]3O[C@@H](n4ccc(N)nc4=O)C[C@@H]3OP(=O)(O)O)SCCCN3CCNCC3)[C@@H](COP(=O)(O)O[C@H]3C[C@H](n4ccc(N)nc4=O)O[C@@H]3COP(=O)(O)O[C@H]3C[C@H](n4ccc(N)nc4=O)O[C@@H]3COP(=O)(O)O[C@H]3C[C@H](n4ccc(N)nc4=O)O[C@@H]3CO)O2)c(=O)[nH]c1=O | 41 | 43 | 23 | -1 | -3 | -3 |
| Cc1cn([C@H]2C[C@H](OP(=O)(O)OC[C@H]3O[C@@H](n4cc(C)c(=O)[nH]c4=O)C[C@@H]3OP(=O)(O)OC[C@H]3O[C@@H](n4cc(C)c(=O)[nH]c4=O)C[C@@H]3O[P@@](=O)(OC[C@H]3O[C@@H](n4cc(C)c(=O)[nH]c4=O)C[C@@H]3OP(=O)(O)OC[C@H]3O[C@@H](n4cc(C)c(=O)[nH]c4=O)C[C@@H]3OP(=O)(O)OC[C@H]3O[C@@H](n4cc(C)c(=O)[nH]c4=O)C[C@@H]3OP(=O)(O)OC[C@H]3O[C@@H](n4ccc(N)nc4=O)C[C@@H]3OP(=O)(O)OC[C@H]3O[C@@H](n4ccc(N)nc4=O)C[C@@H]3OP(=O)(O)OC[C@H]3O[C@@H](n4ccc(N)nc4=O)C[C@@H]3OP(=O)(O)O)SCCCCCCN)[C@@H](COP(=O)(O)O[C@H]3C[C@H](n4ccc(N)nc4=O)O[C@@H]3COP(=O)(O)O[C@H]3C[C@H](n4ccc(N)nc4=O)O[C@@H]3COP(=O)(O)O[C@H]3C[C@H](n4ccc(N)nc4=O)O[C@@H]3CO)O2)c(=O)[nH]c1=O | 42 | 43 | 27 | 0 | -3 | 2 |
| Cc1cn([C@H]2C[C@H](OP(=O)(O)OC[C@H]3O[C@@H](n4cc(C)c(=O)[nH]c4=O)C[C@@H]3OP(=O)(O)OC[C@H]3O[C@@H](n4cc(C)c(=O)[nH]c4=O)C[C@@H]3O[P@](=O)(OC[C@H]3O[C@@H](n4cc(C)c(=O)[nH]c4=O)C[C@@H]3OP(=O)(O)OC[C@H]3O[C@@H](n4cc(C)c(=O)[nH]c4=O)C[C@@H]3OP(=O)(O)OC[C@H]3O[C@@H](n4cc(C)c(=O)[nH]c4=O)C[C@@H]3OP(=O)(O)OC[C@H]3O[C@@H](n4ccc(N)nc4=O)C[C@@H]3OP(=O)(O)OC[C@H]3O[C@@H](n4ccc(N)nc4=O)C[C@@H]3OP(=O)(O)OC[C@H]3O[C@@H](n4ccc(N)nc4=O)C[C@@H]3OP(=O)(O)O)SCCCCN)[C@@H](COP(=O)(O)O[C@H]3C[C@H](n4ccc(N)nc4=O)O[C@@H]3COP(=O)(O)O[C@H]3C[C@H](n4ccc(N)nc4=O)O[C@@H]3COP(=O)(O)O[C@H]3C[C@H](n4ccc(N)nc4=O)O[C@@H]3CO)O2)c(=O)[nH]c1=O | 40 | 43 | 24 | -2 | -3 | -2 |
| Cc1cn([C@H]2C[C@H](OP(=O)(O)OC[C@H]3O[C@@H](n4cc(C)c(=O)[nH]c4=O)C[C@@H]3OP(=O)(O)OC[C@H]3O[C@@H](n4cc(C)c(=O)[nH]c4=O)C[C@@H]3O[P@@](=O)(OC[C@H]3O[C@@H](n4cc(C)c(=O)[nH]c4=O)C[C@@H]3OP(=O)(O)OC[C@H]3O[C@@H](n4cc(C)c(=O)[nH]c4=O)C[C@@H]3OP(=O)(O)OC[C@H]3O[C@@H](n4cc(C)c(=O)[nH]c4=O)C[C@@H]3OP(=O)(O)OC[C@H]3O[C@@H](n4ccc(N)nc4=O)C[C@@H]3OP(=O)(O)OC[C@H]3O[C@@H](n4ccc(N)nc4=O)C[C@@H]3OP(=O)(O)OC[C@H]3O[C@@H](n4ccc(N)nc4=O)C[C@@H]3OP(=O)(O)O)SCCCCN)[C@@H](COP(=O)(O)O[C@H]3C[C@H](n4ccc(N)nc4=O)O[C@@H]3COP(=O)(O)O[C@H]3C[C@H](n4ccc(N)nc4=O)O[C@@H]3COP(=O)(O)O[C@H]3C[C@H](n4ccc(N)nc4=O)O[C@@H]3CO)O2)c(=O)[nH]c1=O | 44 | 45 | 27 | 2 | -1 | 2 |
